Assay results reported in US20070207225A1 (priority 2006, published 2007).

How the values were obtained:
estrogen receptor ERα = biological target: T1, estrogen receptor ERα (Homo sapiens, UniProt P03372); settings: competition assays, literature (Morito et al. 2001); cited from earlier work
T1 sequence (P03372 1-595): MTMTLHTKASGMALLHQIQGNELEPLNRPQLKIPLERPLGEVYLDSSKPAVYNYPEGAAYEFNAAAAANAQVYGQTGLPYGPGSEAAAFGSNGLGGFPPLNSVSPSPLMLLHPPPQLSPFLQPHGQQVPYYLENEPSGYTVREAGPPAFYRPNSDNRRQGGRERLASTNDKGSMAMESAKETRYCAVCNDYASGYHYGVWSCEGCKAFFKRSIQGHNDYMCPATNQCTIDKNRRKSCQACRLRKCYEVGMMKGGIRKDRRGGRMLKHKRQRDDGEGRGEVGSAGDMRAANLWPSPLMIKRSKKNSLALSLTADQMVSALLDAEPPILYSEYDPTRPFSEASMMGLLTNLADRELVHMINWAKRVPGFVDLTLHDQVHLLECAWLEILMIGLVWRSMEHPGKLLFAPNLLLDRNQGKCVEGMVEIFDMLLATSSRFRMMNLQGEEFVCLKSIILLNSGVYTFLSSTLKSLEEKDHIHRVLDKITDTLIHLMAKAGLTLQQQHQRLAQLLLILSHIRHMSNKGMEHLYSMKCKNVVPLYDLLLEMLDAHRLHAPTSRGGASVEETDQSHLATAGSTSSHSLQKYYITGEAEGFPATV

estrogen receptor ERβ = estrogen receptor ERβ (Homo sapiens, UniProt Q92731); settings: competition assays, literature (Morito et al. 2001); cited from earlier work
C-reactive protein = assay: Serum C-reactive protein in osteopenic women, six month study (immunochemiluminescent assay); assay type: in vivo, human
Text: (§1) Inflammatory markers, according to various representative embodiments of the present invention, may comprise G-reactive proteins and/or homocysteine and/or the like. […] Prior to the six month period, participants in the study were placed on a standard fat-reduced diet for four-weeks, which constituted a stabilization process. The participants were then randomly assigned to receive either genistein, HRT or a placebo. Throughout the study period, samples were obtained while participants were fasting to minimize dietary effects. The samples were used to measure serum C-reactive protein and plasma homocysteine.
Serum C-reactive protein was measured using an immunochemiluminescent assay (Immulite DPC, Los Angeles, Calif., USA). Samples were stored after separation at −80° C. until assayed. Sensitivity was 0.07 μg/ml with intra- and interassay coefficient of variations of 3.1 and 5.7%, respectively. The reference interval was 0.20-5.10 μg/ml.
(§2) For statistical evaluation of the serum C-reactive protein and homocysteine, a two-way ANOVA with Bonferroni post-test was performed.

estradiol = assay: Estradiol levels in postmenopausal women, six month treatment (HPLC-UV); assay type: in vivo, human; settings: for Estradiol: baseline, prior to six month treatment, n = 30
Text: (§3) Cardiovascular risk markers, according to various embodiments of the present invention, may comprise fasting insulin levels, fasting glucose levels, insulin resistance levels, osteoprotegerin levels, sex hormone-binding globulin levels, fibrinogen levels, estradiol levels and/or the like. […] See Crisafulli A., Altavilla D., Marini H., Bitto A., Cucinotta D., Frisina N., Corrado F., D'Anna R., Squadrito G., Adamo E., Marini R., Romeo A., Cancellieri F., Buemi M., Squadrito F., Menopause, The Journal of the North American Menopause Society, Vol. 12 No. 2 pp. 186-192.
(§4) Prior to this six month period, participants in the study were placed on a standard fat-reduced diet for four-weeks, which constituted a stabilization process.
(§5) The assay was performed by using an HPLC method with UV detection.
(§6) Data was presented as mean±SEM, and the significance of the difference was assessed by analysis of variance, where a value of P less than 0.05 was considered statistically significant.

[1] = Plasma genistein levels in postmenopausal women, six month treatment (HPLC-UV); assay type: in vivo, human; settings: for Plasma Genistein: baseline, prior to six month treatment, n = 30
Text: as §3, §4, §5, §6

fibrinogen = assay: Fibrinogen levels in postmenopausal women, six month treatment; assay type: in vivo, human; settings: for Fibrinogen: n = 30, mean±SEM
Text: as §3, §4
To measure fibrinogen levels, automated routine procedures were utilized.
as §6

fasting glucose = assay: Fasting glucose levels in postmenopausal women, six month treatment (enzymatic kit); assay type: in vivo, human; settings: for Fasting Glucose: n = 30, mean±SEM
Text: as §3, §4
To measure fasting glucose levels, serum glucose was measured by an enzymatic kit (BioSystemSA, Barcelona, Spain), (intra-assay CV 1%; interassay CV 1.8%; lower detection limit, 0.0126 mmol/L). Glucose in the sample produces, by means of the coupled reactions, a colored complex that can be spectrophotometrically measured.
as §6

osteoprotegerin = assay: Osteoprotegerin levels in postmenopausal women, six month treatment (ELISA); assay type: in vivo, human; settings: for Osteoprotegerin: n = 30, mean±SEM
Text: as §3, §4
To measure osteoprotegerin levels, a commercially available ELISA kit according to the protocol of the manufacturer (Immunodiagnostik Bensheim Germany) was utilized. This assay detects monomeric, dimeric, and ligand-bound forms of OPG (intra-assay CV 5%; interassay CV 6%; lower detection limit, 0.14 pmol/l).
as §6

homocysteine = assay: Plasma homocysteine in osteopenic women, six month study (immunochemiluminescent assay); assay type: in vivo, human
Text: as §1, with “The participants were then randomly assigned to receive either genistein, HRT or a placebo.” left out
Plasma homocysteine was measured using an immunochemiluminescent assay (Immulite DPC, Los Angeles, Calif., USA). Samples were stored after separation at −80° C. until assayed. Homocysteine was assayed on plasma samples after treatment with S-adenosyl-L-homocysteine (SAH) hydrolase and dithiothreitol (DTT) solution. EDTA plasma was separated from the cells as soon as possible after collection. Samples were stored on ice between the time of sampling and centrifugation.
as §2

fasting insulin = assay: Fasting insulin levels in postmenopausal women, six month treatment (ELISA); assay type: in vivo, human; settings: for Fasting Insulin: n = 30, mean±SEM
Text: as §3, §4
To measure fasting insulin levels, insulin was measured by a commercially available ELISA kit according to the protocol of the manufacturer (DRG Diagnostik, Frauenberg Germany) (intraassay CV 4%; interassay CV 6%; lower detection limit, <1.5 μlU/ml).
as §6

insulin resistance = assay: Insulin resistance (HOMA-IR) in postmenopausal women, six month treatment; assay type: in vivo, human; settings: for Insulin resistance: HOMA-IR, n = 30, mean±SEM
Text: as §3, §4
To measure insulin resistance levels, insulin was measured by a commercially available ELISA kit according to the protocol of the manufacturer (DRG Diagnostik, Frauenberg Germany) (intraassay CV 4%; interassay CV 6%; lower detection limit, <1.5 μlU/ml). Serum glucose was measured by an enzymatic kit (BioSystemSA, Barcelona, Spain), (intra-assay CV 1%; interassay CV 1.8%; lower detection limit, 0.0126 mmol/l). Glucose in the sample produces, by means of the coupled reactions, a colored complex that can be spectrophotometrically measured. Insulin resistance was calculated using the Homeostasis Model Assessment method (HOMA-IR=(insulin×glucose)/22.5).
as §6

[2] = test system: sex hormone-binding globulin; assay: Sex hormone-binding globulin levels in postmenopausal women, six month treatment (immunoradiometric assay); assay type: in vivo, human; settings: for Sex Hormone Binding Globulin: n = 30, mean±SEM
Text: as §3, §4
To measure sex hormone-binding globulin levels, an immunoradiometric assay (RADIM SPA, Rome, Italy) (intra-assay CV 4%; interassay CV 5%; lower detection limit, 2.5 nmol/L) was used.
as §6

[3] = osteopenic women, after six months, genistein 54 mg/day or HRT, mean ± SE
[4] = osteopenic women, before treatment (baseline), n = 30, mean ± SE
[5] = after six months, genistein 54 mg/d
[6] = after six months, genistein 54 mg/d, listed as genistein
[7] = baseline to six months, not taking uncertainties into account
[8] = baseline, prior to six month treatment
[9] = baseline, prior to six month treatment, listed as genistein

estrogen receptor ERβ, sequence (Q92731 whole entry): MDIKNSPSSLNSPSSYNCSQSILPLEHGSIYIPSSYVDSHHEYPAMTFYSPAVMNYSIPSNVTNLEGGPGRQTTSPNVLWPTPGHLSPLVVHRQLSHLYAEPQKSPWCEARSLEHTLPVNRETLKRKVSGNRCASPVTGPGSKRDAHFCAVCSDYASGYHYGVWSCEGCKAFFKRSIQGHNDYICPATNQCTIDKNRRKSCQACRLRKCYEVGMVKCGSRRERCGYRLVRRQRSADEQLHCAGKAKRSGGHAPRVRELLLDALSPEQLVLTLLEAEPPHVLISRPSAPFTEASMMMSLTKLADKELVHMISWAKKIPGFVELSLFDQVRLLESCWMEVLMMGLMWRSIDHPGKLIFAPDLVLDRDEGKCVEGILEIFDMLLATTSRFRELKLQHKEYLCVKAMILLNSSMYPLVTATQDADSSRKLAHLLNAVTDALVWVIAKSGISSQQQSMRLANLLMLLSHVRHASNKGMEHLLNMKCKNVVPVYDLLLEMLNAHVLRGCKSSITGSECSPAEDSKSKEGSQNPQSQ

## O=C1c2c(O)cc(O)cc2OCC1c1ccc(O)cc1 (stereo not shown) [dihydrogenistein]
Estrogen receptor ERα
  Binding to estrogen receptor ERα: binding similar to the isoflavones, but lower than genistein
Estrogen receptor ERβ
  Binding to estrogen receptor ERβ: binding similar to the isoflavones, but lower than genistein

## Oc1ccc([C@H]2COc3cc(O)ccc3C2)cc1 [equol]
Estrogen receptor ERα
  Binding to estrogen receptor ERα: binding similar to the isoflavones, but lower than genistein
Estrogen receptor ERβ
  Binding to estrogen receptor ERβ: binding similar to the isoflavones, but lower than genistein

## O=c1c(-c2ccc(O)cc2)coc2cc(O)cc(O)c12 [Genistein, 4′,5,7-Trihydroxyisoflavone 5,7-Dihydroxy-3-(4-hydroxyphenyl)-4H-1-benzopyran-4-one]
C-reactive protein; after 6 months of treatment
  C-reactive protein level, change from baseline: no significant differences at the end of treatment from baseline
C-reactive protein; [3]
  Serum C-reactive protein (CRP), After: 2.13 ± 0.45 mg/L
C-reactive protein; [4]
  Serum C-reactive protein (CRP), Before: 1.73 ± 0.31 mg/L
estradiol; after 6 months, genistein 54 mg/d, FIG. 4A
  Estradiol levels, six month readings: approximately 78 pmol/L
estradiol
  Estradiol: 73 ± 2.19 pmol/L
estradiol; listed as genistein
  Estradiol: approximately 74 pmol/L
estradiol; given over a six month period, FIG. 4A
  Effect on estradiol levels: does not significantly elevate estradiol levels
[1]; 6 months vs baseline
  Increase in plasma genistein levels after 6 months of treatment: approximately 60%
[1]
  Plasma Genistein: 0.07 ± 0.004 µmol/L
[1]; listed as genistein
  Plasma Genistein: approximately 0.75 μmol/l
[1]; female, human, in vivo, 54 mg/d
  concentration at 6 months: ~1200 nM
fibrinogen; [5]
  Fibrinogen: 3.18 ± 0.12 g/L
fibrinogen; [6]
  Fibrinogen: 3.18 ± 0.12 g/L
fibrinogen; [7]
  Decrease of fibrinogen levels: ~11.7%
fibrinogen; [8]
  Fibrinogen: 3.6 ± 0.12 g/L
fibrinogen; [9]
  Fibrinogen: 3.6 ± 0.12 g/L
Fasting glucose; after six months of treatment, P<0.001 as compared to placebo, FIG. 5
  Decrease in levels of fasting glucose: 8.7±2.3%
Fasting glucose; [5]
  Fasting Glucose: 4.3 ± 0.10
Fasting glucose; [8]
  Fasting Glucose: 4.74 ± 0.11
osteoprotegerin; after six months, FIG. 8
  Decrease of osteoprotegerin levels: −2±0.3%
osteoprotegerin; [5]
  Osteoprotegerin: 4.4 ± 0.11
osteoprotegerin; [8]
  Osteoprotegerin: 4.67 ± 0.13
homocysteine; after six months, difference not statistically significant (P>0.05)
  Plasma homocysteine mean value, change from baseline: slightly decreased from baseline
homocysteine; [3]
  Plasma homocysteine, After: 10.72 ± 0.46 µmol/L
homocysteine; [4]
  Plasma homocysteine, Before: 11.36 ± 0.39 µmol/L
Fasting insulin; after six months, FIG. 6
  Decrease of fasting insulin levels: −12±3.33%
Fasting insulin; [5]
  Fasting Insulin: 6.24 ± 0.45
Fasting insulin; [8]
  Fasting Insulin: 7 ± 0.55
Insulin resistance; after six months, FIG. 7
  Decrease of insulin resistance levels: −14±5.8%
Insulin resistance; [5]
  Insulin resistance: 1.18 ± 0.08
Insulin resistance; [8]
  Insulin resistance: 1.47 ± 0.12
[2]; [5]
  Sex Hormone Binding Globulin: 63 ± 3.83 nmol/L
[2]; [6]
  Sex Hormone Binding Globulin: 63 ± 3.83 nmol/L
[2]; [7]
  Decrease of sex hormone binding globulin levels: ~11.3%
[2]; [8]
  Sex Hormone Binding Globulin: 71 ± 4.2 nmol/L
[2]; [9]
  Sex Hormone Binding Globulin: 71 ± 4.2 nmol/L
